In article PMC7239824, “Impact of intracellular hemin on N-type inactivation of voltage-gated K^+ channels” (Pflugers Archiv, 2020):

Molecular target: T1, hKvβ1.1 1-140 (Homo sapiens, UniProt Q14722)
T1 construct: gene KCNAB1; E. coli BL21(DE3) pRIL; NHS-dye labelled
T1 sequence (Q14722 1-140 isoform Q14722-2): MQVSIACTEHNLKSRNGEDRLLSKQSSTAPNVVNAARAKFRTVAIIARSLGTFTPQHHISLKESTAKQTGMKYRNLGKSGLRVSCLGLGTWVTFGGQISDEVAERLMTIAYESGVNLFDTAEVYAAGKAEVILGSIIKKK
Assay: microscale thermophoresis
Details: read-out: binding constant

Compound C=CC1=C(C)C2=Cc3c(C=C)c(C)c4[n]3[Fe]([Cl])[n]3c(c(C)c(CCC(=O)O)c3=CC3=NC(=C4)C(C)=C3CCC(=O)O)=CC1=N2 [hemin] has a Kd of 98 ± 14 nM.
